Experimental data reported in US20020073447A1, “Acquired resistance genes and uses thereof” (priority 1996, published 2002).

How the values were obtained:
NPR1-GFP = molecular target: T1, NPR1-GFP (Arabidopsis thaliana, UniProt P93002); assay: Subcellular localization of NPR1-GFP by confocal microscopy; format: in vivo; conditions: 35S-NPR1-GFP eleven-day-old seedlings grown on MS with SA or INA
T1 construct: expressed in transfected cells; host or cells: Transgenic Arabidopsis npr1-1 and npr1-2 mutant plants (seedlings; leaf mesophyll and guard cells), CaMV 35S promoter
T1 sequence (P93002 1-593): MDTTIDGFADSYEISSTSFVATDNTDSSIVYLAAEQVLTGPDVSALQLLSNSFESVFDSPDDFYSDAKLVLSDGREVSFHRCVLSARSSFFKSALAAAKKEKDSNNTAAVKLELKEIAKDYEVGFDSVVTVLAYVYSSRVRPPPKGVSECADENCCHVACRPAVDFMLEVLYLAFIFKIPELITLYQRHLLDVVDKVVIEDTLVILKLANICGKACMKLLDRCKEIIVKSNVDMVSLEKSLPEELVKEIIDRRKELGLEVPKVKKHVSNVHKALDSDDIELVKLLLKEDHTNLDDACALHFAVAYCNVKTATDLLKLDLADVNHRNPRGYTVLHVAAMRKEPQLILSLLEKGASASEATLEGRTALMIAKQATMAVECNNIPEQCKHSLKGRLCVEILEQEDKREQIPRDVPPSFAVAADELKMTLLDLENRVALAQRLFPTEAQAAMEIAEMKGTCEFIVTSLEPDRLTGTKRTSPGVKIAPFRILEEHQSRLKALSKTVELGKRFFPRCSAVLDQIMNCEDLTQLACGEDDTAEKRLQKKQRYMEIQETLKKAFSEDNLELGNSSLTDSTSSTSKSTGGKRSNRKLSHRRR
Description: To elucidate the induction mechanism and the molecular function of the protein, the subcellular localization of NPR1 was determined by using standard reporter gene fusion construct analysis. The green fluorescent protein (GFP) gene was fused to the carboxyl end of the NPR1 cDNA driven by the constitutive CaMV 35S promoter, and the 35S-NPR1-GFP construct was used to transform npr1 mutants, npr1-1 and npr1-2, according to standard methods.
To examine the subcellular localization of the NPR1 protein, the 35S-NPR1-GFP and 35S-mGFP transgenic lines were grown in MS medium in the presence or absence of the SAR-inducing chemicals SA or INA. Eleven-day-old seedlings were subsequently examined using confocal microscopy to detect localization of NPR1-GFP and mGFP. […] In the 35S-mGFP transformants, green fluorescence was detected in the cytoplasm as well as in the nuclei, and SA and INA treatments had no effect on the localization of the protein. […] In the guard cells, the NPR1 protein was localized in the nuclei even without an SAR induction, an intriguing observation because constitutive activation of defense mechanisms in these cells may be necessary to fend off microbial pathogens from gaining entry into the plant through stomata. […] Consistent with this, the following two potential nuclear localization sequences (NLS's) were found in NPR1: […]

PR1 gene = assay: RNA blot analysis of PR1 induction; format: in vivo, Arabidopsis thaliana; conditions: leaves in 0.5 mM INA for twenty-four hours, or SA
Description: Transformants of npr1-2 were grown (22° C. in fourteen hours of light) and selected on MS medium agar (Murashige and Skoog, Physiol Plant. 15:473-497, 1962) containing 2% sucrose, 50 μg/mL kanamycin, and 100 μg/mL ampicillin. Kanamycin-resistant transformants which developed true leaves and healthy roots were transplanted to soil. After two weeks of growth in soil at 22° C. in fourteen hours of light per day, leaves were collected from three transformants of each cosmid clone and soaked in 0.5 mM INA solution for twenty-four hours at 22° C. in fourteen hours of light per day. Leaf tissues were then collected and frozen in liquid nitrogen. Total RNA was extracted from these leaf tissues, and an RNA blot was prepared as described by Cao et al. (Plant Cell 6:1583-1592, 1994). The blot was probed with a PR1-specific probe (a PCR product obtained by amplifying genomic Arabidopsis DNA with PR1-specific primers (sense primer 5′ […]3′ (SEQ ID NO: 19); anti-sense primer 5′ […]3′ (SEQ ID NO: 20)).
These variations were likely to be the result of “position-effects,” the effect of the insertion site in the chromosome on the expression of the transgene. Cosmid clones 21A4-4-3-1, 21A4-6-1-1, 21A4-P5-1, and 21A4-2-1 restored the ability of the npr1-2 mutant to respond to INA induction and, therefore, complemented the npr1-2 mutation.
Transformants carrying each cosmid were also tested for SA induction of PR1 expression by RNA blot analysis Examples of SA induction are shown in FIG. 2A.

[1] = tested on: Pseudomonas syringae pv maculicola ES4326; assay: Growth of P.s. maculicola ES4326 in SA-/INA-pretreated plants; format: in vivo; conditions: for growth of P.s. maculicola ES4326 lower than the untreated control / growth of P.s. maculicola ES4326: wild-type plants treated two days before infection; for growth of P.s. maculicola ES4326: 0 to 3.0 days after infiltration
BGL2-GUS reporter gene = assay: Quantitative GUS assay of BGL2-GUS reporter plants grown on SA or INA; format: in vivo, Arabidopsis thaliana; conditions: 0.5 mM SA, 0.1 mM INA
Description: The M2 seeds were germinated on MS medium with the addition of 0.8% agar, 0.5 mg/mL Mes (2-(N-morpholino)ethane-sulfonic acid), pH 5.7, 2% sucrose, 50 μg/mL kanamycin, and 100 μg/mL ampicillin. […] After incubation for fifteen days, each seedling to be assayed was numbered, and a single leaf was then removed from each seedling and put into the corresponding sample well of a ninety-six-well microtiter plate that contained 100 μL of […] (GUS) substrate solution (50 mM Na2HPO4, pH 7.0, 10 mM Na2EDTA, 0.1% Triton X-100, 0.1% sarkosyl, 0.7 μL/mL β-mercaptoethanol, and 0.7 mg/mL 4-methylumbelliferyl β-D-glucuronide). After all the samples were collected, the microtiter plate was placed under vacuum for two minutes to infiltrate the samples and then incubated at 37° C. overnight. Samples were examined for the fluorescent product of GUS activity (4-methylumbellifone) using a long-wavelength UV light. […] This procedure was repeated in the progeny of these putative mutants to ensure that the mutant phenotype was heritable and to identify the homozygous mutants.
To measure accurately the level of GUS activity, a quantitative GUS assay was performed on npr1-1 plants and the wild-type BGL2-GUS plants grown in the presence of either SA or INA, or in the absence of both. In the absence of an inducer, the background level of GUS activity was five-fold lower in the npr1-1 mutant than in the wild-type. […] Moreover, the induction by 0.1 mM INA was forty-eight-fold for the wild-type versus five-fold for npr1-1. Thus, while GUS activity in the SA- or INA-treated npr1-1 plants was somewhat induced, the activity was at most only slightly higher than the background level of the untreated wild-type.

[2] = tested on: Pseudomonas syringae pv maculicola ES4326; assay: SA-/INA-induced protection against P.s. maculicola ES4326 infection (disease symptoms); format: in vivo; conditions: 1 mM SA or 0.65 mM INA two days before P.s. maculicola ES4326; for plants with chlorotic lesions: npr1-1 plants; for plants showing slight yellowing: wild-type plants
Description: To examine whether the lack of SA- or INA-induced PR gene expression would affect SAR protection against a virulent pathogen infection, fifteen-day-old wild-type and npr1-1 plants were treated with either 1 mM SA or 0.65 mM INA, and two days later were exposed to a P.s. maculicola ES4326 bacterial suspension. […] Chlorotic lesions developed in about ninety percent of the untreated wild-type control plants not pretreated with SA or INA. However, such SA- or INA-induced protection was not observed in npr1-1 mutant plants. Chlorotic lesions were clearly seen in over ninety-percent of untreated and at least eighty-percent of SA- or INA-treated plants. The symptoms on npr1-1 were also more severe than on the wild-type plants.

Arabidopsis thaliana = assay: Plant tolerance to SA or INA treatment (growth, symptoms); format: in vivo; conditions: wild-type and npr1-1 plants; 1 mM SA, 0.65 mM INA

| Compound | localization of NPR1-GFP upon induction (NPR1-GFP) | induction of PR1 gene expression (PR1 gene; npr1-2 mutant) | induction of PR1 gene expression (PR1 gene; wild-type parental line) | decrease in Psm ES4326 growth ([1]; npr1-2 mutant, 0.65 mM INA seventy-two hours prior to infection) | growth of P.s. maculicola ES4326 lower than the untreated control [1] | growth of P.s. maculicola ES4326 [1] | inhibition of Psm ES4326 growth ([1]; wild-type plants, 0.65 mM INA seventy-two hours prior to infection (OD600=0.001)) | increase in GUS activity compared to the uninduced plants (BGL2-GUS reporter gene; npr1-1 plants) | increase in GUS activity compared to the uninduced plants (BGL2-GUS reporter gene; wild-type BGL2-GUS plants) | plants with chlorotic lesions [2] | plants showing slight yellowing [2] | effect of treatment alone on plants (no infection) (Arabidopsis thaliana) |
| --- | --- | --- | --- | --- | --- | --- | --- | --- | --- | --- | --- | --- |
| O=C(O)c1cc(Cl)nc(Cl)c1 [INA, 2,6-dichloroisonicotinic acid] | exclusively in the nuclei of both the mesophyll cells and the guard cells | no induction | induction | ~10 fold | 1000 times | about ten | Complete inhibition | five | forty-eight | at least eighty | less than ten | minimal effect |
| O=C(O)c1ccccc1O [SA, salicylic acid] | exclusively in the nuclei of both the mesophyll cells and the guard cells | only a minor induction | high level of PR1 gene induction |  | 1000 times | about ten |  | seven | fifty-two | at least eighty | less than ten | minimal effect |
